# Test results published in PubChem BioAssay (NCI).
#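 Protocol summary: plate cells (96-well), add compound at 5 concentrations, incubate 48 h, interpolate endpoints linearly. TGI denotes the concentration required for complete inhibition of growth.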
# Experiments:
# Test in all cases: growth of human tumour cells (NCI), 48 h
# A498 renal = system: A498 renal
# HCT-15 colon = system: HCT-15 colon
# HL-60(TB) leukemia = system: HL-60(TB) leukemia
# HOP-62 NSCLC = system: HOP-62 NSCLC
# M14 melanoma = system: M14 melanoma
# MALME-3M melanoma = system: MALME-3M melanoma
# MCF7 breast = system: MCF7 breast
# MDA-MB-435 = system: MDA-MB-435
# MOLT-4 leukemia = system: MOLT-4 leukemia
# NCI-H460 lung = system: NCI-H460 lung
# RPMI-8226 leukemia = system: RPMI-8226 leukemia
# RXF 393 renal = system: RXF 393 renal
# SF-295 CNS = system: SF-295 CNS
# SK-MEL-2 melanoma = system: SK-MEL-2 melanoma
# SR leukemia = system: SR leukemia
# SW-620 colon = system: SW-620 colon
# T-47D breast = system: T-47D breast
# UACC-62 melanoma = system: UACC-62 melanoma
# UO-31 renal = system: UO-31 renal
# MDA-N = system: MDA-N
Structure (SMILES),TGI (A498 renal) [µM],TGI (HCT-15 colon) [µM],TGI (HL-60(TB) leukemia) [µM],TGI (HOP-62 NSCLC) [µM],TGI (M14 melanoma) [µM],TGI (MALME-3M melanoma) [µM],TGI (MCF7 breast) [µM],TGI (MDA-MB-435) [µM],TGI (MOLT-4 leukemia) [µM],TGI (NCI-H460 lung) [µM],TGI (RPMI-8226 leukemia) [µM],TGI (RXF 393 renal) [µM],TGI (SF-295 CNS) [µM],TGI (SK-MEL-2 melanoma) [µM],TGI (SR leukemia) [µM],TGI (SW-620 colon) [µM],TGI (T-47D breast) [µM],TGI (UACC-62 melanoma) [µM],TGI (UO-31 renal) [µM],TGI (MDA-N) [µM]
COc1cc(/C=N/N=C(\N)NO)cc(OC)c1OC,> 100,> 100,42.1,> 100,> 100,82.7,85.9,> 100,> 100,> 100,> 100,> 100,53.2,> 100,71.2,> 100,> 100,50.5,> 100,
Cc1ccc(S(=O)C[C@](NC(=O)OCc2ccccc2)(Sc2ccccc2)C(F)F)cc1 (some centres not stated),29.7,40.3,24.9,86.9,> 100,47.6,,79.6,22.2,42.2,45,79.5,34.4,71.6,30.7,40.6,40,29.9,22.3,
O=C(N=Nc1ccc(Cl)cc1Cl)NNc1ccc(Cl)cc1Cl,33.1,46.8,49.8,18.6,,36.6,,51.3,50.5,33.4,61.9,,,27,78.3,45.8,77.3,29,37.5,35.1
Nc1ccc(-c2nc3ccc(F)cc3s2)cc1Cl,> 100,> 100,,> 100,> 100,> 100,> 100,> 100,> 100,,> 100,> 73.8,> 89.2,> 100,> 100,> 100,,> 100,> 100,> 100
c1ccc2cc3c(NC4=NCCO4)cccc3cc2c1,> 100,> 100,52.1,> 100,> 100,> 100,> 100,98.8,> 100,> 100,> 100,> 100,> 100,> 100,> 100,> 100,,> 100,> 100,3.57
O=c1[nH]nc(Cc2ccccc2)n1/N=C/c1ccco1,> 100,> 100,,> 100,> 100,> 100,> 100,> 100,> 100,> 100,> 100,> 100,> 100,> 100,,> 100,> 100,> 100,> 100,
COc1ccc(-c2c(-c3ccc(OC)cc3)n3c(=O)n(C)c(=O)n23)cc1,95.3,> 100,,> 100,> 100,> 100,> 100,> 100,> 100,,> 100,> 100,> 100,> 100,,> 100,57.1,> 100,> 100,
